Source: US8642593B2, “2,4-pyrimidinediamine compounds and prodrugs and their uses” (Rigel Pharmaceuticals, Inc., priority 2009, dated 2014)

Assays:
KDR/VEGFR2 enzyme = molecular target: T1, KDR/VEGFR2 enzyme (Homo sapiens, UniProt P35968); assay: Biochemical VEGFR Assay (ELISA); settings: Table 2, unit inferred; read-out: Biochem VEGFR2
T1 construct: purchased Millipore #14-630
Experimental: Compounds are tested for the ability to inhibit VEGF2 in an ELISA assay. […] Plates are then washed with 1×PBST using a plate washer, then blocked with 2% BSA in 1×PBST (100 μL/well) for 1 hr at room temperature. The NeutrAvidin-coated plates are again washed with 1×PBST using a plate washer.
The mixed test compound/reaction solutions are added to the wells of the NeutrAvidin-coated plates (50 μL/well). 6× enzyme solution (1000 parts kinase buffer, 0.6 parts KDR/VEGFR2 enzyme (50 μg/mL, Millipore, #14-630) is added to all wells except those designated as negative controls. The plates are incubated for 30 minutes on a shaker at room temperature.
The detection reagent is added at 100 μL/well, and the plates are incubated for 60 minutes at room temperature, then washed with 1×PBST using a plate washer.

Ret kinase = molecular target: T2, Ret kinase (Homo sapiens, UniProt P07949); assay: Biochemical Ret Assay (ELISA-based); settings: for IC50: Table 2, unit inferred, read-out: Biochem Ret; for selectivity over Ret kinase compared with the control: vs control compound
T2 construct: purchased Millipore #14-570
T2 sequence (P07949 658-1114 limits assumed): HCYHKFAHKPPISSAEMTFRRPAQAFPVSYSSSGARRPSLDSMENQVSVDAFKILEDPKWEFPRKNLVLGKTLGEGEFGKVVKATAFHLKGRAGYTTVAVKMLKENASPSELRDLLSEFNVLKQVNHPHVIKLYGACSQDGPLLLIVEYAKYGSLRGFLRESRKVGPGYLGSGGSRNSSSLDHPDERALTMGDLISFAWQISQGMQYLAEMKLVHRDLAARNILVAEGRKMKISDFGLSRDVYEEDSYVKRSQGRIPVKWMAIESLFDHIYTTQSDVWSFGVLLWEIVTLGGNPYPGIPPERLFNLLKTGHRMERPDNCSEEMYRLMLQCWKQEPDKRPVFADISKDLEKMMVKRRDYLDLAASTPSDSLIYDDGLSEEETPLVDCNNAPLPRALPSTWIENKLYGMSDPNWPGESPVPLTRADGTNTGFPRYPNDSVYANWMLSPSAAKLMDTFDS
Experimental: Compounds are tested for the ability to inhibit Ret kinase in an ELISA-based assay. The assay is carried out in a Costar white 96 well plate (Fisher Scientific, #07-200-591) coated overnight with 0.01 mg/mL NeutrAvidin (Pierce, 100 μL/well) at 4° C. The pre-coated 96 well plate is blocked with 2% BSA in PBST buffer for at least 1 h at room temperature before starting the assay. Serially diluted test compound stock solution is prepared separately in DMSO solution starting from 300 μM, and 2 μL/well of this diluted compound (3% DMSO final concentration) is added directly to the NeutrAvidin coated assay plate containing 55.5 μL/well of kinase reaction buffer (20 mM HEPES, pH 7.4, 5 mM MgCl2, 1 mM DTT, 0.01% Brij-35) pre-mixed with ATP and kinase substrate (TK2 peptide). Reaction is initiated by adding 2.5 μL/well Ret kinase (Millipore, #14-570) resulting in a final reaction volume of […]. The reaction is allowed to continue for 30 minutes at room temperature. […] After completing the reaction, the wells are washed three times with PBST and incubated for 1 h at room temperature with 100 μL/well of phosphopeptide detection antibody solution (mixture of 1:10000 diluted mouse anti-pTyr monoclonal antibody (Cell Signal Technology, #9411) and 1:10000 diluted goat HRP-conjugated anti-mouse IgG (Jackson Immunoresearch, #115-035-003)). The plate is washed three times with PBST, developed with supersignal ELISA pico chemiluminescent substrate (Pierce), and read on a SpectraMax M5 microplate reader (Molecular Devices).

T1 sequence (P35968 790-1356 limits assumed): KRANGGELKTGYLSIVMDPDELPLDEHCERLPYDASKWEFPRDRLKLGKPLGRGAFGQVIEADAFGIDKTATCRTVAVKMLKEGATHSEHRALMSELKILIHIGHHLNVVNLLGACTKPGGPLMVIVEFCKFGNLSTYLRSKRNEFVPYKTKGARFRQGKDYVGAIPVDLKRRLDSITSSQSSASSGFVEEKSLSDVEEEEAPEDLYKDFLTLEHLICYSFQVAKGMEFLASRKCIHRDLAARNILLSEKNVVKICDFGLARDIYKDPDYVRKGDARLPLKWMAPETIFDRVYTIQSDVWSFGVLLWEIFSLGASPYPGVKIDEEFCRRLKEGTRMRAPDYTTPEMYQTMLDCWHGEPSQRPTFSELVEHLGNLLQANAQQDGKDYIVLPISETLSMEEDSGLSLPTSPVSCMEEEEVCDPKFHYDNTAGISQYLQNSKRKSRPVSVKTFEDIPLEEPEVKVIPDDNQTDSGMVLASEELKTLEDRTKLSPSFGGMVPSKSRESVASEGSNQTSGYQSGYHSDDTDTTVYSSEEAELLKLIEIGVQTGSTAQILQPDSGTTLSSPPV

SMILES | IC50 (KDR/VEGFR2 enzyme) [nM] | IC50 (Ret kinase) [nM] | selectivity over Ret kinase compared with the control (Ret kinase)
CC1(C)Oc2ccc(Nc3nc(Nc4ccc(N5CCOCC5)nc4)ncc3F)nc2NC1=O [Compound 1, N4-(2,2-Dimethyl-3-oxo-4H-5-pyrido[1,4]oxazin-6-yl)-5-fluoro-N2-[6-morpholinopyridin-3-yl]-2,4-pyrimidinediamine] | 770 | 48 | significantly more selective
CC1(C)Oc2ccc(Nc3nc(Nc4ccc(N5CCOCC5)cc4)ncc3F)nc2NC1=O [Compound 3, N4-(2,2-Dimethyl-3-oxo-4H-5-pyrido[1,4]oxazin-6-yl)-5-fluoro-N2-(4-morpholinophenyl)-2,4-pyrimidinediamine] | 340 | 6 | significantly more selective
